In patent US12642759B2, “Cosmetic composition for improving skin containing extracts of polygala tenuifolia, angelica dahurica and elsholtzia splendens” (SOOY-K CO., LTD., priority 2023, dated 2026):

Experiments:
[1] = ABTS radical scavenging assay; format: biochemical; conditions: concentration 50 μg/mL, positive control
Description: Antioxidant activity was measured using […] (ABTS) radical with reference to the Van den Berg method. This method uses the principle that ABTS+ radical, which has a blue-green color, is made to be transparent by antioxidants. 7 mM ABTS and 2.4 mM potassium persulfate were mixed and left at room temperature in the dark for 24 hours to form ABTS. Absorbance was measured at 734 nm, and the material was used for the experiment after adjusting the absorbance to 0.7±0.1. 100 μL of ABTS working solution and 100 μL of samples of each concentration were mixed and reacted in the dark for 10 minutes. Then, the absorbance was measured at […] and the radical scavenging activity was calculated as shown in Equation 2 below. Ascorbic acid, an antioxidant, was used as a positive control, and an ABTS solution which was not treated with a sample was used as a negative control. [formula] 1-5. Cell Culture

[2] = DPPH radical scavenging assay; format: biochemical; conditions: concentration 50 μg/mL, positive control
Description: Antioxidant efficacy was measured by DPPH radical scavenging activity based on the Blois' method. This assay is one of the generation methods. DPPH is purple in the radical state, and when reduced by receiving electrons, it changes its color to yellow (DPPH-H). 100 μL of 0.2 mM DPPH solution and 80 μL of samples of each concentration were mixed in a 96-well plate, reacted for 30 minutes at room temperature in the dark, and then absorbance was measured at 517 nm to calculate radical scavenging activity according to Equation 1 below. Ascorbic acid, an antioxidant, was used as a positive control, and a DPPH solution which was not treated with a sample was used as a negative control. [formula] ABTS Radical Scavenging Assay

[3] = system: Staphylococcus aureus; assay: Antibacterial activity, paper disc method; format: cell-based; conditions: 4 mg/mL, positive control, 8 mm paper disc, read-out: Clear zone
Description: The antibacterial effect was measured against Staphylococcus aureus (S. aureus). The paper disc method was used to measure the antibacterial activity of the samples. Each strain cultured on a solid plate medium was taken by a platinum loop, then inoculated into a 4 mL liquid medium, and cultured for 20 hours to activate it. Then, 500 μL of the strain was inoculated into 3 mL of liquid medium and cultured for 4 hours. The strain was inoculated onto a solid plate medium so that the number of bacteria was 1×10^6-5×10^6/mL, and then spread evenly using a spreader. Each sample was prepared according to the concentrations, and 50 μL of the sample was absorbed into a paper disc (Toyo, Japan) with a diameter of 8 mm. The paper disc was placed on a solid plate medium inoculated with the strain and cultured at 37° C. for 20 hours. Then, the diameter of the clear zone around the disc was measured. Disc diffusion test is performed by placing a disc into which a sample was absorbed on an agar plate medium inoculated with bacteria and culturing them, and then measuring the diameter of the inhibition zone (clear zone) of the sample that diffused around the disc as much as it inhibited the growth of the bacteria.

Structure (SMILES) | ABTS radical scavenging activity (antioxidant activity) [1] | DPPH radical scavenging activity (antioxidant activity) [2] | zone of inhibition at 4000 µg/mL [3]
O=C1O[C@H]([C@@H](O)CO)C(O)=C1O [Ascorbic acid, ascorbic acid] | 99.68±0.21% | 87.21±0.56% | 
COC(=O)c1ccc(O)cc1 [Methyl paraben] |  |  | 8.5 mm
